Results reported in patent US20200206349A1, “Immunothermosensitive Composite, Kit For Treating Cancer, And Use Thereof” (National Tsing Hua University, priority 2018, published 2020).

What was measured:
[1] = tested on: CT26 primary tumor; assay: Animal treatment test: primary tumor size and survival; type: in vivo, Balb/c mice; conditions: without NIR; treated day 14, 21, 28
Procedure: Experimental animals used in the experiments are Balb/c mice (6-8 weeks old), which are purchased from BioLASCO Taiwan Co., Ltd. (Taipei, Taiwan). All the animal experiments are performed according to “Guide for the Care and Use of Laboratory Animals” developed by the Institute of Laboratory Animal Resources, National Research Council. Balb/c mice are inoculated with 1×10^6 CT26 cells subcutaneously on their right flanks (primary tumor). Fourteen days later when the tumor diameter is about 5 mm (or the tumor volumes reach 150-200 mm^3), the Balb/c tumor mice are established and further used to test the cancer treatment effects on the immunothermosensitive composition and the kit for treating cancer of the present disclosure, and whether the immunothermosensitive composition and the kit for treating cancer of the present disclosure can achieve the dual effects of hyperthermia therapy and immunotherapy.
Further, the cancer treatment effects on the immunothermosensitive composition and the kit for treating cancer of the present disclosure is confirmed in the experiment. […] The size of each primary tumor, which is estimated as length×width×height×π/6, is assessed using a pair of caliper every 2-3 days. […] The Balb/c tumor mice with the rechallenged tumor are no longer treated, but the size of each rechallenged tumor is observed and recorded. […]

[2] = tested on: BMDCs; assay: Proinflammatory cytokines secreted by BMDCs (bead arrays); type: cell-based, Balb/c mice
Procedure: The dendritic cells used in the experiment are dendritic cells differentiated from bone marrow cells (BMDC). […] After 10 days, suspended immature BMDCs are collected for further experiments. […] The cellular uptake of the f-PANI-GCS-R848 by the BMDCs is measured by flow cytometry and immunofluorescence staining. The experiment further includes the BMDCs treated with medium only as a control. Flow cytometry is performed to measure the cell uptake of f-PANI-GCS-R848 by BD Accuri™ C6 flow cytometer (BD Biosciences, San Jose, Calif., USA), and data are analyzed using FlowJo (Treestar, Ashland, Oreg., USA). In immunofluorescence staining, LysoTracker is used as a cell marker for endosome. The BMDCs are incubated with LysoTracker™ Red DND-99 (Thermo Fischer Scientific) containing medium for 2 hours, washed, and stained with 4′,6-diamidino-2-phenylindole (DAPI) in PBS for 10 minutes. Finally, the BMDCs are observed and imaged under a confocal laser scanning microscopy (CLSM, LSM 780, Carl Zeiss, Jena, Germany). […] The BMDCs and the culture supernatants are then collected separately. The expression of mature dendritic cell markers CD80 and CD86 in the treated BMDCs are analyzed by flow cytometry, and the concentrations of inflammatory cytokines secreted by mature dendritic cells in the supernatant are measured by […] beads arrays (CBA, BD Bioscience). The experiment further includes the BMDCs treated with medium only as negative controls (represented as “PBS”). The flow cytometry includes follow steps. The BMDCs are incubated with APC-conjugated anti-mouse CD80 antibody (eBioscience) or FITC-conjugated anti-mouse CD86 Antibody (eBioscience), and then analyzed by BD Accuri™ C6 flow cytometer.

[3] = tested on: CT26 cells; assay: Cytotoxicity, CellTiter-Glo cell viability assay; type: cell-based, murine; conditions: 0.625 μg/mL to 10 μg/mL, 24 hours
Procedure: The experiment further includes untreated CT26 cells, the CT26 cells treated with free R848 or the CT26 cells treated with the carrier PANI-GCS as a control. […] The CT26 cells are seeded in 96-well plates at 1×10^4 cells/well for 24 hours. […] The viability of the CT26 cells is evaluated by the CellTiter-Glo® Luminescent Cell Viability Assay kit (Promega, Madison, Wis., USA).

[4] = at 24 hours, 5 μg/mL free R848, 50 μg/mL PANI-GCS-R848
[5] = at 48 hours and 72 hours (after 24 hours)

Q: `CCOCc1nc2c(N)nc3ccccc3c2n1CC(C)(C)O` [R848, resiquimod] was tested. Which “growth of the primary tumor” value [1] did it give?
A: The value was “slightly delayed”.

Q: What about the IL-6 secretion [2, 4] of the same compound?
A: The IL-6 secretion was “notable levels”.

Q: And the TNF-α secretion [2, 4]?
A: The TNF-α secretion was “notable levels”.

Q: What about the IL-6 secretion [2, 5] of the same compound?
A: Its IL-6 secretion is “do not change significantly”.

Q: What about the TNF-α secretion [2, 5] of the same compound?
A: Its TNF-α secretion is “do not change significantly”.

Q: And the “cytotoxicity (cell viability)” value [3]?
A: Its value is “not significantly cytotoxic”.
